According to ChEMBL document CHEMBL4000216, “Lignan derivatives from Selaginella tamariscina and their nitric oxide inhibitory effects in LPS-stimulated RAW 264.7 cells” (Bioorg Med Chem Lett, 2017):
pIC50: −log10 of the molar value. Activity calls are given as the source filed them. The calls are words filed in the database; no cut-off is given here.

How the values were obtained:
RAW264.7 [1] = assay: Inhibition of LPS-induced NO production in mouse RAW264.7 cells preincubated for 1 hr followed by LPS stimulation for 24 hrs by Griess assay; type: functional, cell-based
RAW264.7 [2] = assay: Cytotoxicity against mouse RAW264.7 cells assessed as reduction in cell viability at 3 to 60 uM after 24 hrs by MTT assay; type: cell-based; conditions: raw264.7, 24 h
RAW264.7 [3] = assay: Inhibition of LPS-induced NO production in mouse RAW264.7 cells at 3 to 60 uM preincubated for 1 hr followed by LPS stimulation for 24 hrs by Griess assay; type: functional, cell-based

pIC50 (RAW264.7 [1]) | Structure (SMILES) | Activity (RAW264.7 [2]) | inhibition (RAW264.7 [3])
4.49 | COc1cc([C@@H]2Oc3c(OC)cc(C(C)=O)cc3[C@H]2CO)cc(OC)c1O | Non-Toxic | –
– | COc1cc([C@@H]2Oc3c(OC)cc(C(C)=O)cc3[C@H]2CO)cc(OC)c1O[C@@H]1O[C@H](CO[C@@H]2O[C@H](CO)[C@@H](O)[C@H](O)[C@H]2O)[C@@H](O)[C@H](O)[C@H]1O | Non-Toxic | inactive
4.49 | COc1cc([C@@H]2Oc3c(OC)cc(C(C)=O)cc3[C@H]2CO)cc(OC)c1O[C@@H]1O[C@H](CO)[C@@H](O)[C@H](O)[C@H]1O | Non-Toxic | –
5.03 | O=C1/C(=C/c2ccc(O)c(O)c2)COc2cc(O)ccc21 [SAPPANONE A] | – | –
4.39 | COc1cc(C[C@@H](CO[C@@H]2O[C@H](CO)[C@@H](O)[C@H](O)[C@H]2O)c2cc(C(C)=O)cc(OC)c2O)cc(OC)c1O | Non-Toxic | –
– | COc1cc([C@H]2OC[C@H]3[C@@H]2CO[C@@H]3c2cc(OC)c(O[C@@H]3O[C@H](CO)[C@@H](O)[C@H](O)[C@H]3O)c(OC)c2)cc(OC)c1O[C@@H]1O[C@H](CO)[C@@H](O)[C@H](O)[C@H]1O [LIRIODENDRIN] | Non-Toxic | inactive
4.25 | COc1cc([C@@H]2Oc3c(OC)cc(C(C)=O)cc3[C@H]2CO[C@@H]2O[C@H](CO)[C@@H](O)[C@H](O)[C@H]2O)cc(OC)c1O | Non-Toxic | –
